Data: PMC11772769, “Selective cargo and membrane recognition by SNX17 regulates its interaction with Retriever” (EMBO Reports, 2024)

Columns and labels:
[1] = Liposome co-sedimentation assay; type: binding; conditions: protein alone (2 μM) with PI3P-containing LUVs (1 mM), 25 mM Hepes pH 7.5, 200 mM NaCl, 1 h room temperature; Coomassie densitometry; mean ± SD
Method: All lipids were purchased from Avanti Polar Lipids, INC. (Alabaster, AL) and dissolved in a final 20:9 molar ratio of chloroform:methanol. The lipid composition of liposomes consisted of DOPC, DOPE, DOPS, 18:1 PI(3)P, and 1,2-dioleoyl-sn-glycero-3-phosphoethanolamine-N-(lissamine rhodamine B sulfonyl) (18:1 Liss Rhod PE) in a final molar ratio of 44.7:29.3:20.0:5.0:1.0, respectively. Vesicles were prepared using the same thin-film hydration method described for GUVs, followed by extrusion to get a more homogeneous vesicle population. A mini extruder (Avanti Polar Lipids) and Whatman Nucleopore track-etched membranes with a pore size of 0.4 μm (Cytiva) were used to obtain Large Unilamellar Vesicles (LUVs). The extrusion buffer (25 mM Hepes pH 7.5, 1 mM TCEP) was supplemented with 250 mM raffinose pentahydrate to produce vesicles filled with raffinose. These vesicles can be separated from the aqueous solution in co-sedimentation assays by centrifugation (Julkowska et al, [2013]). […]
For co-sedimentation experiments, the working buffer (25 mM Hepes pH 7.5, 200 mM NaCl, 1 mM TCEP), proteins (Retriever, HisSumo-SNX17, and His10-L2FBR or His10-LRP1ICD in a 2:2:4 μM ratio), and liposomes (1 mM final concentration) were sequentially mixed into 0.5 ml tubes. […] Quantification of signal intensity was determined using Empiria Studio Software (LI-COR). […]

VPS26C = target: T1, VPS26C (Homo sapiens, UniProt O14972); assay: Isothermal titration calorimetry VPS26C with SNX17FERM-CT; type: binding; conditions: ITC, 30 μM VPS26C and 300 μM SNX17FERM-CT, 25 mM Hepes pH 7.5, 150 mM NaCl, 25 °C; also pull-down
T1 construct: His-Sumo3 (N, cleaved yes); made in house; host or cells: Escherichia coli BL21(DE3)
Method: Isothermal titration calorimetry (ITC) experiments were carried out on a Nano ITC calorimeter (TA Instruments). VPS26C and SNX17FERM-CT were dialyzed overnight at 4 °C against 25 mM Hepes pH 7.5, 150 mM NaCl, and 0.5 mM TCEP, and degassed for 30 min at 25 °C before titration. The titration experiments were conducted at 25 °C with one initial 1.5 μl injection followed by 19 injections of 2.5 μl with a spacing of 300 s between injections. To determine the heat of dilution similar injections of SNX17FERM-CT in buffer were carried out. The resulting titration data were analyzed using NanoAnalyze software (TA Instruments).

interaction with VPS26C (VPS26C): no direct interaction
Substance: SNX17: recombinant sorting nexin 17; His-Sumo3-SNX17 in co-sedimentation, SNX17FERM-CT in ITC
percentage of total protein bound to the pellet [1]: 64 ± 17%
